Measured values reported in patent US10662198B2, “Polymorphic form of compound, preparation method and use thereof” (QILU PHARMACEUTICAL CO., LTD., priority 2017, dated 2020).

Columns and labels:
Type in all cases: physicochemical
[1] = Stability test at room temperature; settings: for Purity after 180 days / Crystalline form after 180 days: sealed medicinal low density polyethylene bags; for Purity after 180 days: HPLC; for Crystalline form after 180 days: XRPD
Excerpt: The crystalline form II prepared in example 2, crystalline form IV prepared in example 4, crystalline form VI prepared in example 8, and crystalline form VII prepared in example 10 were respectively placed in medicinal low density polyethylene bags, sealed, and maintained at room temperature for 180 days, detected by PANalytical X-ray powder diffractometer for its XRPD, and by high performance liquid chromatography for its purity.

[2] = Stability test at high temperature
Method: The crystalline form II prepared in example 2 was subjected to a stability test at 60° C., and the results were shown in Table 7 below.

[3] = Stability test under high humidity
Excerpt: The crystalline form IV prepared in example 4 was subjected to a stability test at 92.5% RH, and the results were shown in Table 8 below.

purity and crystalline form after 180 days (in words) [1] | Purity after 180 days [1] [%] | Crystalline form after 180 days [1] | HPLC purity (%) Initial ([2]; 60° C. test, initial) [%] | Crystalline form After 10 days ([2]; 60° C., after 10 days) | HPLC purity (%) After 10 days ([2]; 60° C., after 10 days) [%] | change in purity and crystalline form (in words) ([2]; high temperature condition, 10 days) | HPLC purity (%) Initial ([3]; 92.5% RH test, initial) [%] | HPLC purity (%) After 10 days ([3]; 92.5% RH, after 10 days) [%] | change in purity and crystal form (in words) ([3]; high humidity condition, 10 days) | purity, color, and properties on preservation at high humidity (in words) ([3]; relative humidity of up to 92.5% RH) | SMILES
remained unchanged | 99.5 | unchanged | 96.8 | crystalline form unchanged | 96.6 | no change in purity and crystalline form |  |  |  |  | COC(=O)C1=C2C[C@H](NS(N)(=O)=O)CN2C(c2nccs2)=N[C@H]1c1ccc(F)c(F)c1F [Crystalline form II, methyl (3R,6S)-6-aminosulfonylamino-1-(thiazol-2-yl)-3-(2,3,4-trifluorophenyl)-3,5,6,7-tetrahydropyrrolo[1,2-c]pyrimidin-4-formate]
remained unchanged | 99.3 | unchanged |  |  |  |  | 99.2 | 99.1 | no change in purity and crystal form | purity, color, and properties unchanged | COC(=O)C1=C2C[C@H](NS(N)(=O)=O)CN2C(c2nccs2)=N[C@H]1c1ccc(F)c(F)c1F [Crystalline form IV, methyl (3R,6S)-6-aminosulfonylamino-1-(thiazol-2-yl)-3-(2,3,4-trifluorophenyl)-3,5,6,7-tetrahydropyrrolo[1,2-c]pyrimidin-4-formate]
remained unchanged | 99.7 | unchanged |  |  |  |  |  |  |  |  | COC(=O)C1=C2C[C@H](NS(N)(=O)=O)CN2C(c2nccs2)=N[C@H]1c1ccc(F)c(F)c1F [Crystalline form VI, methyl (3R,6S)-6-aminosulfonylamino-1-(thiazol-2-yl)-3-(2,3,4-trifluorophenyl)-3,5,6,7-tetrahydropyrrolo[1,2-c]pyrimidin-4-formate]
remained unchanged | 99.5 | unchanged |  |  |  |  |  |  |  |  | COC(=O)C1=C2C[C@H](NS(N)(=O)=O)CN2C(c2nccs2)=N[C@H]1c1ccc(F)c(F)c1F [Crystalline form VII, methyl (3R,6S)-6-aminosulfonylamino-1-(thiazol-2-yl)-3-(2,3,4-trifluorophenyl)-3,5,6,7-tetrahydropyrrolo[1,2-c]pyrimidin-4-formate]
